Measurements reported in publication PMC4104137 (2014).

How the values were obtained:
[1] = test system: dU50 (RNA, aptamer, 2'-deoxyuridine at 37 (U50 in full-length numbering)) GGGGAGAAGGACGGGUCCAGUGCGAAACACGCACUGUUGAGUAGAGUGUGAGCUCCC; assay: fluorescence activation titration, Hill fit; settings: 100 mM K+, 5 mM Mg2+; 30 nM RNA; 10 mM Tris pH 7.5
[2] = test system: G28A (RNA, aptamer) GGACGCGACCGAAAUGGUGAAGGACGGAUCCAGUGCGAAACACGCACUGUUGAGUAGAGUGUGAGCUCCGUAACUGGUCGCGUC; assay: fluorescence activation titration, Hill fit; settings: 100 mM K+, 5 mM Mg2+; 30 nM RNA; 10 mM Tris pH 7.5

CC1=N/C(=C\c2cc(F)c(O)c(F)c2)C(=O)N1C
KD [1]: 1100 ± 300 nM | KD [2]: 4400 ± 800 nM
